Test results as given in paper PMC7712541, “Seven New Cytotoxic and Antimicrobial Xanthoquinodins from Jugulospora vestita” (Journal of Fungi, 2020).
Converted amounts (≈) assume the structure as drawn.

What was measured:
[1] = system: Pseudomonas aeruginosa; experiment: MIC, antibacterial test; format: cell-based; settings: read-out: Minimum inhibitory concentration (MIC)
Experimental: (§1) Compounds were tested for their antimicrobial activity against […] fungi (Candida albicans, Mucor hiemails, Pichia anomala, Rhodotorula glutinis and Schizosaccharomyces pombe), four different Gram-positive bacteria (Bacillus subtilis, Micrococcus luteus, Mycobacterium smegmatis and Staphylococcus aureus), and three Gram-negative bacteria (Chromobacterium violaceum, Escherichia coli and Pseudomonas aeruginosa), using oxytetracycline as a positive control against Gram-positive and Gram-negative bacteria, while nystatin was used as an antifungal positive control. Besides, cytotoxicities of the compounds against seven mammalian cell lines (human endocervical adenocarcinoma KB 3.1, breast cancer MCF-7, lung cancer A549, ovary cancer SK-OV-3, prostate cancer PC-3, squamous cancer A431, and mouse fibroblasts L929) were determined by the microculture tetrazolium test (MTT) method, using epothilon B as the positive control. Both bioactivity assays were performed following our standard protocols.

[2] = system: Mycobacterium smegmatis; experiment: MIC, antibacterial test; format: cell-based
Experimental: as §1

[3] = system: Mucor hiemalis; experiment: MIC, antifungal test; format: cell-based
Experimental: as §1

[4] = system: Candida albicans; experiment: MIC, antifungal test; format: cell-based
Experimental: as §1

[5] = system: Pichia anomala; experiment: MIC, antifungal test; format: cell-based
Experimental: as §1

[6] = system: Schizosaccharomyces pombe; experiment: MIC, antifungal test; format: cell-based
Experimental: as §1

[7] = system: Rhodotorula glutinis; experiment: MIC, antifungal test; format: cell-based
Experimental: as §1

[8] = system: Chromobacterium violaceum; experiment: MIC, antibacterial test; format: cell-based; settings: read-out: Minimum inhibitory concentration (MIC)
Experimental: as §1

[9] = system: Escherichia coli; experiment: MIC, antibacterial test; format: cell-based; settings: read-out: Minimum inhibitory concentration (MIC)
Experimental: as §1

[10] = system: Micrococcus luteus; experiment: MIC, antibacterial test; format: cell-based; settings: read-out: Minimum inhibitory concentration (MIC)
Experimental: as §1

[11] = system: Bacillus subtilis; experiment: MIC, antibacterial test; format: cell-based; settings: read-out: Minimum inhibitory concentration (MIC)
Experimental: as §1

[12] = system: Staphylococcus aureus; experiment: MIC, antibacterial test; format: cell-based; settings: read-out: Minimum inhibitory concentration (MIC)
Experimental: as §1

[13] = system: Co. truncatum and Cu. lunata; design: method as in PMID 29677644; settings: cited from earlier work
[14] = system: NCI-H187 and Vero; design: method as in PMID 29677644; settings: cited from earlier work
[15] = system: Al. brassicicola, Co. gloeosporioides, Co. truncatum, Cu. lunata and Py. grisea; design: method as in PMID 29677644; settings: cited from earlier work

CNC(C)C1CCC(N)C(OC2C(N)CC(N)C(OC3OCC(C)(O)C(NC)C3O)C2O)O1 (centres unmarked) [gentamicin, reference compound]
MIC [1]: 0.4 µg/mL (≈ 0.838 µM)

NC[C@H]1O[C@H](O[C@H]2[C@H](O)[C@@H](O[C@H]3O[C@H](CO)[C@@H](O)[C@H](N)[C@H]3O)[C@H](N)C[C@@H]2N)[C@H](O)[C@@H](O)[C@@H]1O [kanamycin, reference compound]
Minimum inhibitory concentration (MIC) [2]: 1.70 ^3 µg/mL

C[C@@H]1[C@H](O)[C@@H](C)/C=C/C=C/CC/C=C/C=C/C=C/C=C/C(O[C@H]2O[C@H](C)[C@@H](O)[C@H](N)[C@@H]2O)CC2O[C@](O)(CC(O)C(O)CCC(O)CC(O)CC(O)CC(=O)O[C@H]1C)CC(O)C2C(=O)O (some centres unmarked) [nystatin, reference compound]
Minimum inhibitory concentration (MIC) [3]: 33.30 ^1 µg/mL
Minimum inhibitory concentration (MIC) [4]: 33.30 ^1 µg/mL
Minimum inhibitory concentration (MIC) [5]: 33.30 ^1 µg/mL
Minimum inhibitory concentration (MIC) [6]: 33.30 ^1 µg/mL
Minimum inhibitory concentration (MIC) [7]: 16.70 ^1 µg/mL

CN(C)[C@@H]1C(O)=C(C(N)=O)C(=O)[C@@]2(O)C(O)=C3C(=O)c4c(O)cccc4[C@@](C)(O)[C@H]3[C@H](O)[C@@H]12 [oxytetracycline, reference compound]
MIC [8]: 0.8 µg/mL (≈ 1.74 µM)
MIC [9]: 3.3 µg/mL (≈ 7.17 µM)
MIC [10]: 0.8 µg/mL (≈ 1.74 µM)
MIC [11]: 8.3 µg/mL (≈ 18 µM)
MIC [12]: 0.4 µg/mL (≈ 0.869 µM)

COC(=O)[C@]12Oc3cc4c(c(O)c3C(=O)C1=C(O)CC[C@@H]2O)[C@@H]1C=C[C@]2(C4)C(=C(O)c3c(O)cc(C)cc3[C@@H]2O)C1=O [xanthoquinodin A6]
Antifungal effects (in words) [13]: significant antifungal effects
Cytotoxicity compared with other xanthoquinodins (in words) [14]: stronger cytotoxicity

COC(=O)[C@@]12Oc3c(c(O)cc4c3[C@@H]3C=C[C@]5(C4)C(=C(O)c4c(O)cc(C)cc4[C@@H]5O)C3=O)C(=O)C1=C(O)CC[C@@H]2O [xanthoquinodin B5]
Antifungal effects (in words) [15]: significant antifungal effects
Cytotoxicity compared with other xanthoquinodins (in words) [14]: stronger cytotoxicity

ketoxanthoquinodin A6
Antifungal effects (in words) [13]: significant antifungal effects
